What was measured:
[1] = test system: RBCs and protein in the BAL; assay: Lung injury / microvascular permeability: RBCs and total protein in BAL, guinea pig model; assay type: in vivo, Dunkin-Hartley guinea pigs
Procedure: Animals were sensitized on day 0 ip with 50 mg/kg OVA. On Days 17, 18, 19, and 20, animals received an ip injection between 8 and 10 am with PBS, SCV-07 at 1 ug/kg, or SCV-07 at 10 ug/kg (Peptide treatment). Between 8 and 10 a.m. on Day 21, animals were administered peptide 2 hours before OVA or saline (NSS) aerosol challenge. 30 min before OVA or NSS aerosol challenge each animal was injected ip with an antihistamine (6.1 mg/kg pyrilamine maleate) to prevent death due to the anaphylactic response that accompanies aerosol OVA challenge. Animals were exposed to aerosol in pairs with either 1% OVA solution or NSS for 5 min in a plexiglass chamber (22×22×29 cm) using a DeVilbiss Model 35B Ultrasonic Nebulizer. Animals were observed during the total 5 min aerosolization and comments recorded. Within 22-24 hours after challenge, animals were euthanized, bled by cardiac puncture, lavaged and lung lobes removed for measurement of cellular infiltration. At the time of OVA or NSS challenge and euthanasia, animal weights ranged from approximately 350-550 g, with the average weight approximately 420 g. This experimental protocol is similar to that used in previously published studies (Regal and Fraser, 1996; Regal et al., 2000). […] Total white blood cells in BAL were counted by standard methods in a hemacytometer using Turk's solution. […] Four hundred cells were counted and identified as eosinophils, neutrophils, or mononuclear cells. […] EPO activity from the homogenized lung after lavage was expressed as total OD/min from the left caudal lobe. MPO activity from the homogenized lung after lavage was expressed as total units of enzyme activity from the right caudal lobe. […] OD412 of the BAL supernatant was also determined to estimate the number of RBCS that were lysed during the lavage procedure and prior to re-suspension of the cells for counting. […] Lung injury and/or changes in microvascular permeability were assessed by determining the RBCs in the BAL (FIG. 7A-B) as well as the overall protein content of the BAL fluid (FIG. 7C). […]

pollinosis = assay: Case report: SCV-07 before specific immunotherapy of pollinosis; assay type: in vivo, human; conditions: SCV-07 perorally 1.5 mg once a day for 10 days, 15 days before SIT; season April-June 2006
Procedure: Patient.—P-na M. N., 45 years. Date of first consultation—October 2004. From the end of November 2004 to mid-March 2005, the patient underwent specific immunotherapy (SIT) for pollinosis, using the allergoid (“Puretal-tree”) according to the scheme: subcutaneous once a week, beginning with a single dose of the administered allergoid of 0.025 mL, the subsequent dose are escalated during the course of treatment until reaching a single dose of 0.5 mL (0.025 mL-0.05 mL, −0.1 mL-0.2 mL-0.3 mL-0.4 mL-0.5 mL), and the following does are staying on this dose. Considering the above situation, during October 2005, to increase the clinical effectiveness of SIT, under initiating or anticipatory conditions, immune stimulation—a course of the preparation “SCV-07” —was perorally administered as follows: 1.5 mg once a day daily for 10 days in a row. On completion of the “SCV-07” course, the patient, from the middle of November 2005 through mid-March 2006, underwent another course of SIT for pollinosis, using the allergoid “Puretal-tree” according to the previous scheme. The interval between the “SCV-07” course and the beginning of the SIT course for pollinosis was 15 days.

[2] = in vivo; cited from earlier work

With `N[C@H](CCC(=O)N[C@@H](Cc1c[nH]c2ccccc12)C(=O)O)C(=O)O` [SCV-07, γ-D-glutamyl-L-tryptophan] the “OD412 of the BAL supernatant” value ([1]; change from NSS to OVA) was “significantly reduced”, the “Number of RBCs in the BAL (OD412 of lysed cell pellet), change from NSS to OVA” value ([1]; either 1 or 10 ug/kg) was “significantly attenuated” and the “Total protein in the BAL fluid” value ([1]; guinea pig, in vivo) was “not affected”. For the same molecule, the “Seasonal rhinoconjunctival symptoms after SIT preceded by SCV-07 course” value (pollinosis) was “seasonal rhinoconjunctival symptoms were virtually absent” and the “Non-toxic dose as multiple of the employed doses” value [2] was ≥ 100,000 times.
